Patent publication US6187906A, “Methods to improve neural outcome” (Aukland Uniservices Limited, priority 1998, dated 2001)

How the values were obtained:
substantia nigra neurons = test: Medial forebrain bundle transection, TH immunopositive cell survival (Experiment 7); assay type: in vivo, Wistar rats; conditions: lesioned side; daily supranigral GPE 0.3 μg for two weeks
Experimental: Adult male Wistar rats (200-220 g) were anaesthetized with 75 mg/kg Nembutal and positioned in a stereotaxic apparatus. Unilateral transection of the medial forebrain bundle which contains the ascending nigral dopaminergic projection fibers was made 1.3 mm rostral to the rostral tip of the substantia nigra using a retractable wire knife (David Kopf Instruments, Tujunga, Calif.). The knife was lowered into the brain using the following coordinates from the atlas of Paxinos and Watson (1996), Sydney: Academic Press: 3.3 mm posterior to Bregma, 2.4 mm lateral from midline, and 8.5 mm ventral from skull, the blade was extended 2.0 mm toward midline, raised 2.5 mm dorsally, retracted and extended again, and then returned 2.5 mm ventrally. The wire blade was retracted and the knife withdrawn. Next, a 22-gauge metal guide cannula was permanently fixed into place supranigrally at 5.0 mm posterior to Bregma, 2.0 mm lateral to midline, and 6.8 mm ventral to skull. A second set of intact unlesioned rats were cannulated supranigrally at the same coordinates. […]
Immunopositive cells were counted in the central substantia nigra. […] To reveal percent survival, percent changes were calculated by dividing the ipsilateral value by contralateral value.

[1] = tested on: hypoxic-ischemic brain injury; test: Hypoxic-ischemic brain injury in adult rats, central GPE (Experiment 3); assay type: in vivo, Wistar rats
Experimental: The objective of this study was to compare the effects of treatment with GPE to that of vehicle given 2 hours after a hypoxic-ischemic brain injury.
Unilateral hypoxic-ischemic injury was induced in adult 300±10 g) male Wistar rats. The rats underwent unilateral carotid ligation under light halothane anaesthesia. Following one hour recovery they were placed in an incubator at 34C at 85±5% humidity for one hour before injury. They were subjected to 10 min inhalational asphyxia (FiO2 6.0%) and maintained in the incubator for one hour after asphyxia. Two hours after the termination of the inhalation injury, a single stereotaxically controlled lateral cerebroventricular injection of either 3 μGPE (n=15) or phosphate buffered saline alone (n=15) was given. The animals were then maintained for 120 hrs, anaesthetized and the brains fixed in situ for histological assessment.
Surviving and dead neurons were discriminated with the use of a thionin/acid fuchsin staining technique [C. Williams, A. Gunn, C. Mallard, P. Gluckman Ped Res. (1990). A. Brown, J. Brierley, J. Neurol Sci, 16:59-84 (1971)]. The results are shown in FIG. 3; using a scoring technique. […] Similar to our previous study with IGF-1 the incidence of cortical infarction was lower following GPE treatment at 27% compared to the control/vehicle treated rats at 53% (Guan et al J Cereb Blood Flow Metab. 13:609-616 (1993)).
(The incidence of hippocampal damage was reduced following treatment with 3 μg GPE. The asterisk indicates a probability of under <0.05.
For this figure the columns A and B indicate the proportional loss of area (which can be extrapolated to indicate volume using the well-known principles of stereology) between the left and rights sides of the cortex of the brain, for either a control vehicle or 3 μG of GPE. Volumes were measured using computer-aided image analysis techniques. […] Neurones were counted after staining, with the aid of a microscope. […] Thus a single central injection of GPE following an asphyxial injury in the adult rat was associated with a marked improvement in outcome as assessed histologically.

IGF-1 receptor = IGF-1 receptor (Homo sapiens, UniProt P08069); conditions: cited from earlier work
Sequence of IGF-1 receptor (P08069 31-736 limits assumed): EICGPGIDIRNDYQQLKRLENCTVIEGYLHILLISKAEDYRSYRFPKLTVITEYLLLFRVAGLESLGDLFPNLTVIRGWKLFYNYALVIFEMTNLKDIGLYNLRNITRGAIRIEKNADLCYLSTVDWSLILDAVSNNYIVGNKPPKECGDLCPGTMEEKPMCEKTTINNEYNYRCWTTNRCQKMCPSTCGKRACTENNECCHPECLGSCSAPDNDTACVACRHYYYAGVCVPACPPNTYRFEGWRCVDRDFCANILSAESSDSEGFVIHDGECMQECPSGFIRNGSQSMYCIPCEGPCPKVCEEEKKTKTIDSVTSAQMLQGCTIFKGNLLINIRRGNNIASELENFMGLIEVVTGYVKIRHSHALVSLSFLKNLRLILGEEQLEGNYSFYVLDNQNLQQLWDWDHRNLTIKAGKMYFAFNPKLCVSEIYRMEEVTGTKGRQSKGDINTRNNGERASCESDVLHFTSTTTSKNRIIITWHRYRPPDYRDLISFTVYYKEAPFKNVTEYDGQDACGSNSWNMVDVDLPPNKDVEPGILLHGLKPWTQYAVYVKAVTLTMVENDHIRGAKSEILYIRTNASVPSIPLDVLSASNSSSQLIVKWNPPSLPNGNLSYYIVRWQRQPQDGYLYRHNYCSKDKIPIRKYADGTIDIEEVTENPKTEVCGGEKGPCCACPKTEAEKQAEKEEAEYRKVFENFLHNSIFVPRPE
Sequence of IGF-1 receptor (P08069 741-1367 partner limits assumed): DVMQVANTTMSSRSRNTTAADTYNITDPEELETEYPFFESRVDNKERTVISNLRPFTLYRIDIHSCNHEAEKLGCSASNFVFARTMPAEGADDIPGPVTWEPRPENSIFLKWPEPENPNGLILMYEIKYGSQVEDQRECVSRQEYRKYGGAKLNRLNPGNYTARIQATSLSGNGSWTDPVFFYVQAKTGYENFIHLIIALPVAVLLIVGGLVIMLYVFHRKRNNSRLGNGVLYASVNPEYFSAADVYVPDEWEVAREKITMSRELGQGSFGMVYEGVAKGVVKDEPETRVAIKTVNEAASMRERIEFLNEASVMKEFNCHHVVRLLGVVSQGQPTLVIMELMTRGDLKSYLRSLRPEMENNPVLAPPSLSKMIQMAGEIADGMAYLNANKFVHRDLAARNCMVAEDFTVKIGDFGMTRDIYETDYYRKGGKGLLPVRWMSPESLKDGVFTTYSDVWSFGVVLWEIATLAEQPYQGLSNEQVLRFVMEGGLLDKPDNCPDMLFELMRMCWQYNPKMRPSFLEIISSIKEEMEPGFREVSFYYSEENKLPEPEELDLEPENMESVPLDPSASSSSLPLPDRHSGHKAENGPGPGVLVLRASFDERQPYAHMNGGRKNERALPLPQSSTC

NCC(=O)N1CCC[C@H]1C(=O)N[C@@H](CCC(=O)O)C(=O)O [GPE, gly-pro-glu]
percent cell survival of TH immunopositive neurons (substantia nigra neurons): increased | incidence of hippocampal damage in the ligated hemisphere ([1]; 3 μg GPE 2 hours after hypoxia, p<0.05 vs vehicle): reduced the incidence of hippocampal damage | incidence of cortical infarction ([1]; 3 μg GPE lateral cerebroventricular injection 2 hours after injury, 120 hrs, vehicle 53%): 27% | number of damaged cells (FIG. 4, cortex area and live hippocampal neurones R/L) ([1]; 3 μg GPE, single central injection, p 0.04): significant reduction in the number of damaged cells | binding to the IGF-1 receptor (IGF-1 receptor): does not
